Like-named read-outs stand apart in the source and are kept apart here.
What was measured:
His6-TEV-PPARγ-(234-505) = target: T1, His6-TEV-PPARγ-(234-505) (Homo sapiens, UniProt P37231); assay: TR-FRET Assay to Measure Co-R Peptide Recruitment to PPARγ; type: biochemical; details: Co-R peptide (SMRT-ID2) recruitment; top final concentration 20 μM; read-out: TR-FRET i-Ag; AC50
T1 construct: The His6-TEV-PPARγ-(234-505) protein for assay was expressed and purified; TEV cleavage site (N); made in house
T1 sequence (P37231 234-505): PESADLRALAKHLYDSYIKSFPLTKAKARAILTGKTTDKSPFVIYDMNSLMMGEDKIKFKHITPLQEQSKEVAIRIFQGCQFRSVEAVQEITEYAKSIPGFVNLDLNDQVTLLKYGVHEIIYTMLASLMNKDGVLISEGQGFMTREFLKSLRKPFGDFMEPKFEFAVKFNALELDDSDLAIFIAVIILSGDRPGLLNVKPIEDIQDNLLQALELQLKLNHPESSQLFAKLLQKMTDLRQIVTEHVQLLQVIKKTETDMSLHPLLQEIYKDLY
In short: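 His-tagged PPARγ (or controls) was preincubated with compound for 20 minutes at room temperature, then 5 nM anti-His terbium antibody and 200 nM FITC-labeled SMRT-ID2 corepressor peptide (final) were added for a further hour. TR-FRET signal was normalized to percent response using 500 nM T0070907 and DMSO controls.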

UM-UC-9 engineered cells = assay: Cell proliferation / short-term viability assay, CellTiter-Glo 144 h; type: cell-based, human; details: read-out: CTGlo 144 h UMUC9.5, G150
In short: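 UM-UC-9 engineered assay-ready cells seeded at 500 cells/well in high-glucose DMEM/10% FBS, treated from dose-response plates, grown at 37° C, 5% CO2. CellTiter-Glo 2.0 luminescence read on day 7, with a day-0 pretreatment plate as T0 reference and DMSO wells as negative control.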

Compound	AC50 (His6-TEV-PPARγ-(234-505))	IC50 (UM-UC-9 engineered cells)	IC50 (UM-UC-9 engineered cells; Homo sapiens, UM-UC-9, 144 h)
COc1cc(-c2cc(C(=O)N3CC[C@H](C(=O)NC45CC(CO)(C4)OC5C)CC34CC4)n[nH]2)c(F)cn1 (single isomer, unassigned) [Example 518-A]	130 nM	3130 nM	
COc1cc(-c2cc(C(=O)N3CC[C@H](C(=O)NC45CC(CO)(C4)OC5C)CC34CC4)n[nH]2)c(F)cn1 (single isomer, unassigned) [Example 518-B]	996 nM	> 10000 nM	
N#Cc1cc(-c2cc(C(=O)N3CCC(C(=O)NC4CCC(O)(C(F)(F)F)CC4)CC34CC4)n[nH]2)ncn1 (single isomer, unassigned) [Example 528-A]	2090 nM	> 10000 nM	
N#Cc1cc(-c2cc(C(=O)N3CCC(C(=O)NC4CCC(O)(C(F)(F)F)CC4)CC34CC4)n[nH]2)ncn1 (single isomer, unassigned) [Example 528-B]	14 nM	405 nM	
O=C(NC1CCC(O)(C(F)(F)F)CC1)C1CCN(C(=O)c2cc(-c3cc(Cl)ncc3F)[nH]n2)C2(CC2)C1 (single isomer, unassigned) [Example 529-A]	756 nM	5560 nM	
O=C(NC1CCC(O)(C(F)(F)F)CC1)C1CCN(C(=O)c2cc(-c3cc(Cl)ncc3F)[nH]n2)C2(CC2)C1 (single isomer, unassigned) [Example 529-B]	1.4 nM	9.2 nM	
COc1cc(-c2cc(C(=O)N3CCC(C(=O)N[C@@H](C)c4cccc(F)c4)CC3)n[nH]2)c(Cl)cn1 [Example 103, (8)-1-(5-(5-chloro-2-methoxypyridin-4-yl)-1H-pyrazole-3-carbonyl)-N-(1-(3-fluorophenyl)ethyl)piperidine-4-carboxamide]	257 nM		320 nM
COc1cc(-c2cc(C(=O)N3CCC(C(=O)NCc4cccc(Cl)c4)CC3)n[nH]2)c(Cl)cn1 [Example 112, 1-[5-(5-chloro-2-methoxypyridin-4-yl)-1H-pyrazole-3-carbonyl]-N-[(3-chlorophenyl)methyl]piperidine-4-carboxamide]	30.3 nM		111 nM
COc1cc(-c2cc(C(=O)N3CCC(C(=O)NC4CCN(c5ccccc5)C4)CC3)n[nH]2)c(Cl)cn1 (stereo not shown) [Example 117, 1-[5-(5-chloro-2-methoxypyridin-4-yl)-1H-pyrazole-3-carbonyl]-N-(1-phenylpyrrolidin-3-yl)piperidine-4-carboxamide]	56.2 nM		293 nM
COc1cc(-c2cc(C(=O)N3CCC(C(=O)NCc4cn5ccccc5n4)CC3)n[nH]2)c(Cl)cn1 [Example 119, 1-(5-(5-chloro-2-methoxypyridin-4-yl)-1H-pyrazole-3-carbonyl)-N-(imidazo[1,2-a]pyridin-2-ylmethyl)piperidine-4-carboxamide]	337 nM		> 5000 nM
COc1cc(-c2cc(C(=O)N3CCC(C(=O)NCc4ccc(Cl)cn4)CC3)n[nH]2)c(Cl)cn1 [Example 120, 1-(5-(5-chloro-2-methoxypyridin-4-yl)-1H-pyrazole-3-carbonyl)-N-((5-chloropyridin-2-yl)methyl)piperidine-4-carboxamide]	227 nM		766 nM
COc1cc(-c2cc(C(=O)N3CCC(C(=O)NCc4ccc5[nH]ccc5c4)CC3)n[nH]2)c(Cl)cn1 [Example 122, N-((1H-indol-5-yl)methyl)-1-(5-(5-chloro-2-methoxypyridin-4-yl)-1H-pyrazole-3-carbonyl)piperidine-4-carboxamide]	11 nM		66.1 nM
COc1cc(-c2cc(C(=O)N3CCC(C(=O)NCc4c(F)ccc(F)c4F)CC3)n[nH]2)c(Cl)cn1 [Example 123, 1-(5-(5-chloro-2-methoxypyridin-4-yl)-1H-pyrazole-3-carbonyl)-N-(2,3,6-trifluorobenzyl)piperidine-4-carboxamide]	12.8 nM		100 nM
COc1cc(-c2cc(C(=O)N3CCC(C(=O)NCc4cn(C)nc4C)CC3)n[nH]2)c(Cl)cn1 [Example 124, 1-(5-(5-chloro-2-methoxypyridin-4-yl)-1H-pyrazole-3-carbonyl)-N-((1,3-dimethyl-1H-pyrazol-4-yl)methyl)piperidine-4-carboxamide]	982 nM		5020 nM
COc1cc(-c2cc(C(=O)N3CCC(C(=O)NCc4cc(F)ccc4Cl)CC3)n[nH]2)c(Cl)cn1 [Example 125, 1-(5-(5-chloro-2-methoxypyridin-4-yl)-1H-pyrazole-3-carbonyl)-N-(2-chloro-5-fluorobenzyl)piperidine-4-carboxamide]	24.6 nM		301 nM
COc1cc(-c2cc(C(=O)N3CCC(C(=O)Nc4cnn(CC(F)(F)F)c4)CC3)n[nH]2)c(Cl)cn1 [Example 126, 1-(5-(5-chloro-2-methoxypyridin-4-yl)-1H-pyrazole-3-carbonyl)-N-(1-(2,2,2-trifluoroethyl)-1H-pyrazol-4-yl)piperidine-4-carboxamide]	707 nM		2460 nM
COc1cc(-c2cc(C(=O)N3CCC(C(=O)NCc4ccc(F)cn4)CC3)n[nH]2)c(Cl)cn1 [Example 127, 1-(5-(5-chloro-2-methoxypyridin-4-yl)-1H-pyrazole-3-carbonyl)-N-((5-fluoropyridin-2-yl)methyl)piperidine-4-carboxamide]	644 nM		2930 nM
COc1cc(-c2cc(C(=O)N3CCC(C(=O)NC4(C#N)CCC4)CC3)n[nH]2)c(Cl)cn1 [Example 128, 1-(5-(5-chloro-2-methoxypyridin-4-yl)-1H-pyrazole-3-carbonyl)-N-(1-cyanocyclobutyl)piperidine-4-carboxamide]	864 nM		2560 nM
COc1cc(-c2cc(C(=O)N3CCC(C(=O)NCc4cccc(C(F)(F)F)n4)CC3)n[nH]2)c(Cl)cn1 [Example 129, 1-(5-(5-chloro-2-methoxypyridin-4-yl)-1H-pyrazole-3-carbonyl)-N-((6 (trifluoromethyl)pyridin-2-yl)methyl)piperidine-4-carboxamide]	273 nM		1020 nM
COc1cc(-c2cc(C(=O)N3CCC(C(=O)NCc4ncccc4C(F)(F)F)CC3)n[nH]2)c(Cl)cn1 [Example 130, 1-(5-(5-chloro-2-methoxypyridin-4-yl)-1H-pyrazole-3-carbonyl)-N-((3-(trifluoromethyl)pyridin-2-yl)methyl)piperidine-4-carboxamide]	75.9 nM		685 nM
COc1cc(-c2cc(C(=O)N3CCC(C(=O)NCc4cnccc4C)CC3)n[nH]2)c(Cl)cn1 [Example 131, 1-(5-(5-chloro-2-methoxypyridin-4-yl)-1H-pyrazole-3-carbonyl)-N-((4-methylpyridin-3-yl)methyl)piperidine-4-carboxamide]	494 nM		2610 nM
COc1cc(-c2cc(C(=O)N3CCC(C(=O)N[C@@H]4C[C@H]4c4ccccc4)CC3)n[nH]2)c(Cl)cn1 [Example 133, 1-(5-(5-chloro-2-methoxypyridin-4-yl)-1H-pyrazole-3-carbonyl)-N-((1R,2S)-2-phenylcyclopropyl)piperidine-4-carboxamide]	292 nM		1740 nM
COc1cc(-c2cc(C(=O)N3CCC(C(=O)NCC4(O)CCCCC4)CC3)n[nH]2)c(Cl)cn1 [Example 134, 1-(5-(5-chloro-2-methoxypyridin-4-yl)-1H-pyrazole-3-carbonyl)-N-((1-hydroxycyclohexyl)methyl)piperidine-4-carboxamide]	238 nM		1090 nM

Source: patent US12606541B2, “PPARg modulators and methods of use” (Eisai R&D Management Co., Ltd., priority 2020, dated 2026)
